Measurements published in paper PMC4193543 (ChemMedChem, 2012).

Molecular target: BK β1 subunit (Rattus norvegicus, UniProt P97678)
Assay: inside-out patch clamp, single-channel NPo in excised oocyte patches
Type: cell-based

Chain of BK β1 subunit (P97678 whole entry): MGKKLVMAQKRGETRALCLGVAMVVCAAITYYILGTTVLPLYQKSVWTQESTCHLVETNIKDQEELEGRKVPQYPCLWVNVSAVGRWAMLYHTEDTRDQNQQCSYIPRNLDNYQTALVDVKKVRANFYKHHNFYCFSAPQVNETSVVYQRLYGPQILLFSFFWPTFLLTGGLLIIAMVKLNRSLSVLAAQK
Chain of BK β1 subunit (Q62976 whole entry partner): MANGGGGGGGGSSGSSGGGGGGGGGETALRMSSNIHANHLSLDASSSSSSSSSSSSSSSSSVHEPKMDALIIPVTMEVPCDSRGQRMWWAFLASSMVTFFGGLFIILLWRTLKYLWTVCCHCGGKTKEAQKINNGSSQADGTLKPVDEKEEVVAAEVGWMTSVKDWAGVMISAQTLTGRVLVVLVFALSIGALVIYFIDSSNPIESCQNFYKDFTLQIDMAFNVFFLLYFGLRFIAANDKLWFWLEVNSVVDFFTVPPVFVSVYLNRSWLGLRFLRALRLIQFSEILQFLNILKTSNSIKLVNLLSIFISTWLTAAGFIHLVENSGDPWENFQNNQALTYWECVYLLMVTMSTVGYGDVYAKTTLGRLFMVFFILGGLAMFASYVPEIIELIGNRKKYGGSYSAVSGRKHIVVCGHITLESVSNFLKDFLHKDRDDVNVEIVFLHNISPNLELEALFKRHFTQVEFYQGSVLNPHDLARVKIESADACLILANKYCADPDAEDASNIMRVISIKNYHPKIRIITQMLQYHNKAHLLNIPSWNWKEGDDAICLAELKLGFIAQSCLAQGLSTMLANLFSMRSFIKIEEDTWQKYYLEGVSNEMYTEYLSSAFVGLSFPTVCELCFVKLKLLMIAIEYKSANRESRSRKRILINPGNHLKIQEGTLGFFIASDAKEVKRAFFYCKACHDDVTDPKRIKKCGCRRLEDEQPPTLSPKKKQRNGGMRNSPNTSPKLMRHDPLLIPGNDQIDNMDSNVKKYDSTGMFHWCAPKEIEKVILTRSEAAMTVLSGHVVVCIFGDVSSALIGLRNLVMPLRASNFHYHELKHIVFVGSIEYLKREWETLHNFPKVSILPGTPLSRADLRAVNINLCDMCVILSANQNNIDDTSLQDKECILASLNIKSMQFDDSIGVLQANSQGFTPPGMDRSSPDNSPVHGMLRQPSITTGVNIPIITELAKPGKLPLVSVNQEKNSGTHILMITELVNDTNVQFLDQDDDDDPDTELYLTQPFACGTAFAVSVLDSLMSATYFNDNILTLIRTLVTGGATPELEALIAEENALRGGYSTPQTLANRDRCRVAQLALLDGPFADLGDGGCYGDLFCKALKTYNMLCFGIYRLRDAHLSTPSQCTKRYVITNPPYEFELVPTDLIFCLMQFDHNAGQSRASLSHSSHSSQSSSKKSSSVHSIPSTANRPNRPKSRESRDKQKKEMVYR

| SMILES | EC50 |
| --- | --- |
| C[C@H](CCCC(=O)O)[C@H]1CC[C@H]2[C@@H]3CC[C@@H]4C[C@H](O)CC[C@]4(C)[C@H]3CC[C@]12C [compound 15, higher homologe acid (15, carboxyl group at C25)] | 42.8 µM |
| C[C@H](CCC(=O)O)[C@H]1CC[C@H]2[C@@H]3CC[C@@H]4C[C@H](O)CC[C@]4(C)[C@H]3CC[C@]12C [LCA, 5β-cholanic acid-3α-ol] | 44 µM |
| C[C@H](CCC#N)[C@H]1CC[C@H]2[C@@H]3CC[C@@H]4C[C@H](O)CC[C@]4(C)[C@H]3CC[C@]12C [compound 11, 3α-hydroxy-23-cyano analog, de-acetylated derivative (11)] | 46.4 µM |
